Patent US4396625A, “Treatment of glaucoma or ocular hypertension and ophthalmic composition” (Sumitomo Chemical Company, Limited, priority 1980, dated 1983)
Where a name gives a salt, the structure may show the parent alone.

How the values were obtained:
[1] = system: intra-ocular pressure of the eye; experiment: Intra-ocular pressure measurement after local (ophthalmic) administration in dogs; assay type: in vivo, dog (Beagle); settings: dog, 0.5 w/v %, one drop
Method: In the local administration tests, compound (I) was applied to one eye of healthy grown-up dog (male or female; body weight 10 to 14 kg; Beagle dog) being normal in sense of sight and other sensitive faculties and having no morphological abnormality in the eyes, and evaluated for the effect thereof.
The test ophthalmic composition was prepared according to the recipe of Example 4, so as to include 0.5 w/v % of compound (I) HCl salt.
(§1) One drop (about 0.04 ml) of the ophthalmic composition was applied to a conjunctival sac of one eye and a drop of physiologic saline was into the conjunctival sac of the other eye. Thus applied eyes were kept closed for 5 to 10 seconds to ensure the osmosis of the medicament administered. Intra-ocular pressure in the respective eye was measured by using an Alcon Pneumatonography, just before the treatment with said medicine, and 1 to 24 hours after said administration. At each time, one drop of 0.4% oxydibucaine HCl ophthalmic composition (Trade Mark: Benoxyl® 0.4%; Santen Seiyaku K.K.) was applied to and intra-ocular pressure was measured after 20 to 30 seconds thereafter.

[2] = system: intra-ocular pressure of the eye; experiment: Intra-ocular pressure measurement after ophthalmic administration in albino rabbits; assay type: in vivo; settings: rabbit
Method: as §1
Using the same procedure as stated in Example 1, compound (I) was evaluated with 12 albino rabbits (male; body weight 2 to 3 kg, native kind). As the test medicaments, aqueous 0.5 w/v % and 0.25 w/v % compound (I) HCl solutions prepared according to Example 4 were used, as well as physiologic saline control solution.

[3] = Stability / precipitation of ophthalmic solution on storage; assay type: physicochemical; settings: 40° C., 3 months
Method: To a part of distilled water required, was added 500 mg of compound (I) hydrochloride and the mixture was stirred at room temperature to dissolve the active ingredient. Next, D-mannitol 5 g, glycine 500 mg and Benzalkonium chloride 5 mg were added in this order and dissolved in the same way. After adjusting pH of the solution to 5.5 with hydrochloric acid, the mixture was added with distilled water to make the total volume to 100 ml. The solution was filtered under sterile conditions.
The following ophthalmic composition was prepared in the same way as stated in Example 4, using 100 mg of compound (I) acetate in place of 500 mg of compound (I) hydrochloride.
To a part of the required distilled water, was added 250 mg of compound (I) maleate, and the mixture was heated to 30° C. and stirred to dissolve the active ingredient. To this solution, 4 g of D-manitol, 1 g of glycine and 5 mg of Benzalkonium chloride were added and dissolved in this order. After adjusting pH of the solution to 6.0 with hydrochloric acid, the solution was added with distilled water to make the volume to 100 ml, and thus obtained solution was filtered under sterile conditions.

[4] = Mouse acute toxicity; assay type: in vivo; settings: in vivo
[5] = system: mouse; experiment: Mouse acute toxicity; assay type: in vivo; settings: acute toxicity
[6] = Rat acute toxicity; assay type: in vivo; settings: in vivo
[7] = system: rat; experiment: Rat acute toxicity; assay type: in vivo; settings: acute toxicity

CC(C)(C)NCC(O)CSc1nc(-c2ccc(C(N)=O)s2)cs1 (centres unmarked) [compound (I) HCl]
Intra-ocular pressure (mean ± standard error) ([1]; 1 hour later): 20.0 ± 0.9 mm Hg | Intra-ocular pressure (mean ± standard error) ([1]; 3 hours later): 16.6 ± 1.0 mm Hg | Intra-ocular pressure (mean ± standard error) ([1]; 5 hours later): 15.4 ± 0.9 mm Hg | Intra-ocular pressure (mean ± standard error) ([1]; 7 hours later): 16.0 ± 1.3 mm Hg | Intra-ocular pressure (mean ± standard error) ([1]; 9 hours later): 17.6 ± 1.2 mm Hg | Intra-ocular pressure (mean ± standard error) ([1]; 12 hours later): 20.4 ± 0.7 mm Hg | Intra-ocular pressure (mean ± standard error) ([1]; 24 hours later): 20.6 ± 0.8 mm Hg | Intra-ocular pressure (mean ± standard error) ([1]; before administration): 20.8 ± 0.9 mm Hg | Intra-ocular pressure (mean ± standard error) ([2]; 0.25 w/v %, 0.5 hour later): 20.7 ± 0.7 mm Hg | Intra-ocular pressure (mean ± standard error) ([2]; 0.25 w/v %, 1 hour later): 20.2 ± 0.6 mm Hg | Intra-ocular pressure (mean ± standard error) ([2]; 0.25 w/v %, 2 hours later): 19.8 ± 0.5 mm Hg | Intra-ocular pressure (mean ± standard error) ([2]; 0.25 w/v %, 3 hours later): 20.1 ± 0.6 mm Hg | Intra-ocular pressure (mean ± standard error) ([2]; 0.25 w/v %, 5 hours later): 22.1 ± 0.6 mm Hg | Intra-ocular pressure (mean ± standard error) ([2]; 0.25 w/v %, 7 hours later): 22.9 ± 0.8 mm Hg | Intra-ocular pressure (mean ± standard error) ([2]; 0.25 w/v %, 9 hours later): 21.0 ± 0.7 mm Hg | Intra-ocular pressure (mean ± standard error) ([2]; 0.25 w/v %, 24 hours later): 22.2 ± 0.6 mm Hg | Intra-ocular pressure (mean ± standard error) ([2]; 0.25 w/v %, before administration): 21.8 ± 0.5 mm Hg | Intra-ocular pressure (mean ± standard error) ([2]; 0.5 w/v %, 0.5 hour later): 21.1 ± 0.8 mm Hg | Intra-ocular pressure (mean ± standard error) ([2]; 0.5 w/v %, 1 hour later): 18.9 ± 0.9 mm Hg | Intra-ocular pressure (mean ± standard error) ([2]; 0.5 w/v %, 2 hours later): 18.5 ± 0.9 mm Hg | Intra-ocular pressure (mean ± standard error) ([2]; 0.5 w/v %, 3 hours later): 18.2 ± 0.8 mm Hg | Intra-ocular pressure (mean ± standard error) ([2]; 0.5 w/v %, 5 hours later): 21.6 ± 0.8 mm Hg | Intra-ocular pressure (mean ± standard error) ([2]; 0.5 w/v %, 7 hours later): 22.8 ± 0.8 mm Hg | Intra-ocular pressure (mean ± standard error) ([2]; 0.5 w/v %, 9 hours later): 22.2 ± 0.8 mm Hg | Intra-ocular pressure (mean ± standard error) ([2]; 0.5 w/v %, 24 hours later): 22.5 ± 0.8 mm Hg | Intra-ocular pressure (mean ± standard error) ([2]; 0.5 w/v %, before administration): 22.5 ± 0.6 mm Hg | stability / precipitation of ophthalmic solution ([3]; 0.5 % (w/v), pH 5.5): very stable and no precipitation was observed

CC(C)(C)NCC(O)CSc1nc(-c2ccc(C(N)=O)s2)cs1 (centres unmarked) [compound (I) acetate]
stability / precipitation of ophthalmic solution ([3]; 0.1 % (w/v)): very stable and no precipitation was observed

CC(C)(C)NCC(O)CSc1nc(-c2ccc(C(N)=O)s2)cs1 (centres unmarked) [compound (I) maleate]
stability / precipitation of ophthalmic solution ([3]; 0.25 % (w/v), pH 6.0): very stable and no precipitation was observed

CC(C)(C)NCC(O)CSc1nc(-c2ccc(C(N)=O)s2)cs1 (centres unmarked) [compound (I), 2-(3-tert.-butylamino-2-hydroxypropylthio)-4-(5-carbamoyl-2-thienyl)-thiazole]
LD50 ([4]; ip, intraperitoneal): 500 mg/kg | LD50 ([4]; oral): > 5000 mg/kg | toxic signs [5]: no animals showed particular troublesome symptoms | LD50 ([6]; ip, intraperitoneal): 340 mg/kg | LD50 ([6]; oral): > 3000 mg/kg | toxic signs [7]: no animals showed particular troublesome symptoms
